Laboratory results taken from patent publication US20070117743A1, “New antitumoral compounds” (priority 2003, published 2007).

Legend:
Type in all cases: cell-based, human
PANC-1 = test: SRB colorimetric assay of cell growth and viability, PANC-1; conditions: 48 hours exposure, SRB; for CC50: read-out: LC50 PANC-1
SK-BR-3 = test: SRB colorimetric assay of cell growth and viability, SK-BR-3; conditions: 48 hours exposure, SRB
LoVo = test: SRB colorimetric assay of cell growth and viability, LoVo; conditions: 48 hours exposure, SRB; for CC50: read-out: LC50 LOVO
IGROV-ET = test: SRB colorimetric assay of cell growth and viability, IGROV-ET; conditions: 48 hours exposure, SRB; for CC50: read-out: LC50 IGROV-ET
LoVo-Dox = test: SRB colorimetric assay of cell growth and viability, LoVo-Dox; conditions: 48 hours exposure, SRB; for CC50: read-out: LC50 LOVO-DOX
Procedure, shortened: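 Tumor cells are continuously exposed to sample for 48 hours, with vehicle DMSO:EtOH:PBS (0.5:0.5:99), after an 18-hour drug-free attachment period. Bound SRB, measured at 490 nm, reflects cell mass; GI, TGI and LC are derived from triplicate means.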

A-549 = test: SRB colorimetric assay of cell growth and viability, A-549; conditions: 48 hours exposure, SRB; for GI50: read-out: GI50 A-549; for CC50: read-out: LC50 A-549
HT-29 = test: SRB colorimetric assay of cell growth and viability, HT-29; conditions: 48 hours exposure, SRB; for GI50: read-out: GI50 HT-29; for CC50: read-out: LC50 HT-29
IGROV-1 = test: SRB colorimetric assay of cell growth and viability, IGROV-1; conditions: 48 hours exposure, SRB
HeLa-APL = test: SRB colorimetric assay of cell growth and viability, HeLa-APL; conditions: 48 hours exposure, SRB; for CC50: read-out: LC50 HELA-APL
HeLa = test: SRB colorimetric assay of cell growth and viability, HeLa; conditions: 48 hours exposure, SRB; for CC50: read-out: LC50 HELA
LNCaP = test: SRB colorimetric assay of cell growth and viability, LNCaP; conditions: 48 hours exposure, SRB; for GI50: read-out: GI50 LN-caP; for CC50: read-out: LC50 LN-caP
DU-145 = test: SRB colorimetric assay of cell growth and viability, DU-145; conditions: 48 hours exposure, SRB
K-562 = test: SRB colorimetric assay of cell growth and viability, K-562; conditions: 48 hours exposure, SRB; for CC50: read-out: LC50 K-562
SK-MEL-28 = test: SRB colorimetric assay of cell growth and viability, SK-MEL-28; conditions: 48 hours exposure, SRB; for CC50: read-out: LC50 MEL-28

C/C=C1\NC(=O)[C@H](Cc2ccccc2)NC(=O)[C@@H](C(C)C)NC(=O)[C@@H]([C@@H](C)CC)NC(=O)[C@H](NC(=O)[C@H](NC(=O)[C@H](CCCNC(=O)C(F)(F)F)NC(=O)[C@H]2CCCN2C(=O)[C@H](NC(=O)[C@@H](NC(=O)[C@@H](NC(=O)[C@H](NC(=O)CC[C@@H](C)CC)C(C)C)[C@@H](C)O)C(C)C)C(C)C)[C@@H](C)CC)[C@@H](C)OC(=O)[C@H](C(C)C)NC1=O [Compound 96, [Orn(N^δTfa)^8, 4(S)MeHex^14]-Kahalalide F]
GI50 (PANC-1): 6040 nM | TGI PANC-1 (PANC-1): 6.35E−06 Molar | CC50 (PANC-1): 6350 nM | GI50 (SK-BR-3): 64.8 nM | LC50 (SK-BR-3): 560 nM | TGI SK-BR-3 (SK-BR-3): 1.91E−07 Molar | GI50 (LoVo): 140 nM | TGI LOVO (LoVo): 2.64E−07 Molar | CC50 (LoVo): 500 nM | GI50 (IGROV-ET): 178 nM | TGI IGROV-ET (IGROV-ET): 3.32E−07 Molar | CC50 (IGROV-ET): 619 nM | GI50 (LoVo-Dox): 153 nM | TGI LOVO-DOX (LoVo-Dox): 2.93E−07 Molar | CC50 (LoVo-Dox): 559 nM | TGI A-549 (A-549): 2.57E−06 Molar | GI50 (A-549): 1260 nM | CC50 (A-549): 5230 nM | TGI HT-29 (HT-29): 2.11E−07 Molar | GI50 (HT-29): 101 nM | CC50 (HT-29): 442 nM | GI50 (IGROV-1): 184 nM | LC50 (concentration causing 50% net cell killing) (IGROV-1): 607 nM | TGI IGROV (IGROV-1): 3.34E−07 Molar | GI50 (HeLa-APL): 686 nM | TGI HELA-APL (HeLa-APL): 1.62E−06 Molar | CC50 (HeLa-APL): 3820 nM | GI50 (HeLa): 244 nM | TGI HELA (HeLa): 7.24E−07 Molar | CC50 (HeLa): 2590 nM | TGI LN-caP (LNCaP): 4.60E−06 Molar | GI50 (LNCaP): 1730 nM | CC50 (LNCaP): 6350 nM | GI50 (DU-145): 985 nM | LC50 (concentration causing 50% net cell kill) (DU-145): 3810 nM | TGI DU-145 (DU-145): 1.94E−06 Molar | GI50 (K-562): 4500 nM | TGI K-562 (K-562): 6.35E−06 Molar | CC50 (K-562): 6350 nM | GI50 (SK-MEL-28): 1220 nM | TGI MEL-28 (SK-MEL-28): 2.15E−06 Molar | CC50 (SK-MEL-28): 3770 nM

C/C=C1\NC(=O)[C@H](Cc2ccccc2)NC(=O)[C@@H](C(C)C)NC(=O)[C@@H]([C@@H](C)CC)NC(=O)[C@H](NC(=O)[C@H](NC(=O)[C@H](CCCN)NC(=O)[C@H]2CCCN2C(=O)[C@H](NC(=O)[C@@H](NC(=O)[C@@H](NC(=O)[C@H](NC(=O)CC[C@@H](C)[C@H]2CC[C@H]3[C@@H]4CC[C@@H]5C[C@H](OC(=O)C(F)(F)F)CC[C@]5(C)[C@H]4CC[C@]23C)C(C)C)[C@@H](C)OC(=O)C(F)(F)F)C(C)C)C(C)C)[C@@H](C)CC)[C@@H](C)OC(=O)[C@H](C(C)C)NC1=O [Compound 97, [Thr(OTfa)^12, Lit(OTfa)^14]-Kahalalide F]
GI50 (PANC-1): 2640 nM | TGI PANC-1 (PANC-1): 5.22E−06 Molar | CC50 (PANC-1): 5220 nM | GI50 (SK-BR-3): 45.5 nM | LC50 (SK-BR-3): 324 nM | TGI SK-BR-3 (SK-BR-3): 1.17E−07 Molar | GI50 (LoVo): 128 nM | TGI LOVO (LoVo): 3.01E−07 Molar | CC50 (LoVo): 1090 nM | GI50 (IGROV-ET): 232 nM | TGI IGROV-ET (IGROV-ET): 4.57E−07 Molar | CC50 (IGROV-ET): 2380 nM | GI50 (LoVo-Dox): 186 nM | TGI LOVO-DOX (LoVo-Dox): 3.96E−07 Molar | CC50 (LoVo-Dox): 4120 nM | TGI A-549 (A-549): 1.96E−06 Molar | GI50 (A-549): 1050 nM | CC50 (A-549): 3640 nM | TGI HT-29 (HT-29): 3.36E−07 Molar | GI50 (HT-29): 176 nM | CC50 (HT-29): 1190 nM | GI50 (IGROV-1): 244 nM | LC50 (concentration causing 50% net cell killing) (IGROV-1): 2200 nM | TGI IGROV (IGROV-1): 4.64E−07 Molar | GI50 (HeLa-APL): 751 nM | TGI HELA-APL (HeLa-APL): 1.61E−06 Molar | CC50 (HeLa-APL): 3440 nM | GI50 (HeLa): 809 nM | TGI HELA (HeLa): 1.78E−06 Molar | CC50 (HeLa): 3890 nM | TGI LN-caP (LNCaP): 1.81E−06 Molar | GI50 (LNCaP): 866 nM | CC50 (LNCaP): 3770 nM | GI50 (DU-145): 517 nM | LC50 (concentration causing 50% net cell kill) (DU-145): 2810 nM | TGI DU-145 (DU-145): 1.21E−06 Molar | GI50 (K-562): 1280 nM | TGI K-562 (K-562): 2.34E−06 Molar | CC50 (K-562): 4270 nM | GI50 (SK-MEL-28): 128 nM | TGI MEL-28 (SK-MEL-28): 2.21E−07 Molar | CC50 (SK-MEL-28): 384 nM
